From ChEMBL document CHEMBL1128784, “Symmetry-based HIV Protease inhibitors: rational design of 2-methylbenzamides as novel P2/P2 ligands” (Bioorg Med Chem Lett, 1995)
pKi: −log10 of the molar value.

Target: Human immunodeficiency virus type 1 protease (Human immunodeficiency virus 1, UniProt Q72874)
Experiment: Inhibitory activity against HIV protease

SMILES | pKi
Cc1ccc(O)cc1C(=O)N[C@@H](Cc1ccccc1)[C@H](O)[C@H](O)[C@H](Cc1ccccc1)NC(=O)c1cc(O)ccc1C | 7.13
Cc1c(N)cccc1C(=O)N[C@@H](Cc1ccccc1)[C@H](O)[C@H](O)[C@H](Cc1ccccc1)NC(=O)c1cccc(N)c1C | 8.60
